The subject of data set [1] is interferon and tumor necrosis factor. The following applies: rats, oral administration; cited from earlier work.
In a further data set the test system is herpes simplex virus. The following applies: subcutaneously, dermally or intravaginally 24 hours before infection; cited from earlier work.
For data set [2], the system named is human peripheral blood mononuclear cells. The following applies: cultures of human peripheral blood mononuclear cells; cited from earlier work.
Data set [3] has as its system interferon and tumor necrosis factor. The following applies: mice, oral administration; cited from earlier work.
The nature of data set [4]: Solubility of the drug in gel formulations of the invention. In kind it is physicochemical.

Where two headings read alike, the source gives them in different places.

With `CCOCc1nc2c(N)nc3ccccc3c2n1CC(C)(C)O` [4-amino-2-ethoxymethyl-α,α-dimethyl-1H-imidazo[4,5-c]quinoline-1-ethanol], the “induction of interferon and tumor necrosis factor” value in data set [1] is “induce interferon and tumor necrosis factor”; in data set [3], “induce interferon and tumor necrosis factor”. Also, the antiviral activity result with herpes simplex virus is listed as “antiviral activity”. For the same molecule, in data set [2], the cytokine induction entry is “induce interferon-α, tumor necrosis factor, interleukin-1α, interleukin-1β, interleukin-6 and interleukin-8”. For the same molecule, the results for the “solubility in formulations of the invention” value in data set [4] and in data set [4] (listed as 4-Amino-2-ethoxymethyl-α,α-dimethyl-1H-imidazo[4,5-c]quinoline-1-ethanol) were “sufficiently soluble” and “substantial solubility”, respectively.

These data come from US6365166B2, “Gel formulations for topical drug delivery” (priority 1996, dated 2002).
